Columns and labels:
[1] = biological target: T1, Rat Hepatic V1 Receptors (vasopressin V1) (Rattus norvegicus, UniProt P30560); test: Binding Assay to Rat Hepatic V1 Receptors; settings: rat hepatic V1, [3H]vasopressin
T1 construct: Rat liver plasma membranes expressing the vasopressin V1 receptor subtypes are isolated by sucrose density gradient; from tissue; host or cells: rat liver plasma membranes
Experimental: Binding Assay to Rat Hepatic V1 Receptors
Rat liver plasma membranes expressing the vasopressin V1 receptor subtypes are isolated by sucrose density gradient according to the method described by Lesko et al., (1973). These membranes are quickly suspended in 50.0 mMTris.HCl buffer, pH 7.4, containing 0.2% bovine serum albumin (BSA) and 0.1 mM phenylmethylsulfonylfluoride (PMSF) and kept frozen at -70° C. until used in subsequent binding experiments. For binding experiments, the following is added to the wells of a ninety-six well format microtiter plate: 100 μl of 100.0 mM Tris.HCl buffer containing 10.0 mM MgCl2, 0.2% heat inactivated BSA and a mixture of protease inhibitors: leupeptin, 1.0 mg %; aprotinin, 1.0 mg %, 1,10-phenanthroline,2.0 mg %; trypsin inhibitor, 10.0 mg % and 0.1 mM PMSF, 20.0 μl of [phenylalanyl-3,4,5-^3 H]vasopressin (S.A. 45.1 Ci/mmole) at 0.8 nM, and the reaction initiated by the addition of 80 μl of tissue membranes containing 20 μg of tissue protein. The plates are kept undisturbed on the bench top at room temperature for 120 min. to reach equilibrium. Nonspecific samples are assayed in the presence of 0.1 μM of the unlabeled antagonist phenylalanylvasopressin, added in 20.0 μl volume to a final incubation volume of 200 μl. Upon completion of binding, the content of each well is filtered off, using a Brandel® cell Harvester (Gaithersburg, Md.). The radioactivity trapped on the filter disk by the ligand-receptor complex is assessed by liquid scintillation counting in a Packard LS Counter, with an efficiency of 65% for tritium. The data are analyzed for IC50 values by the LUNDON-2 program for competition (LUNDON SOFTWARE, OH).

[2] = biological target: T2, Rat Kidney Medullary V2 Receptors (vasopressin V2) (Rattus norvegicus, UniProt Q00788); test: Binding Assay to Rat Kidney Medullary V2 Receptors; settings: rat kidney medullary V2, [3H]Arg8-vasopressin
T2 construct: Medullary tissues from rat kidneys are dissected out; from tissue; host or cells: rat kidney medulla membranes
T2 sequence (Q00788 whole entry): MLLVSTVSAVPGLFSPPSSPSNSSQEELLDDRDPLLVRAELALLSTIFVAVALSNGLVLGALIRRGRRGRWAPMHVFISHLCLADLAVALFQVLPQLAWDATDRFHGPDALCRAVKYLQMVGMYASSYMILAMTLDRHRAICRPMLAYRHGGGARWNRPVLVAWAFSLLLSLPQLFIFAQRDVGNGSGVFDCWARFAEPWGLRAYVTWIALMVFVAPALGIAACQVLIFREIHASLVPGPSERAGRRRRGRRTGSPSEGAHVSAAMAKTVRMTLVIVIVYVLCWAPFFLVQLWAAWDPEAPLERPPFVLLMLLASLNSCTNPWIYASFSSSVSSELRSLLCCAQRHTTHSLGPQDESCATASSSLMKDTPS
Experimental: Binding Assay to Rat Kidney Medullary V2 Receptors
Medullary tissues from rat kidneys are dissected out, cut into small pieces and let soak in a […] sodium chloride solution containing 1.0 mM EDTA with many changes of the liquid phase, until the solution is clear of blood. The tissue is homogenized in a 0.25M sucrose solution containing 1.0 mM EDTA and 0.1 mM PMSF using a Potter-Elvehjem homogenizer with a teflon pestle. The homogenate is filtered through several layers (4 layers) of cheese cloth. The filtrate is rehomogenized using a dounce homogenizer, with a tight fitting pestle. The final homogenate is contrifuged at 1500×g for 15 min. The nuclear pellet is discarded and the supernatant fluid recentrifuged at 40,000×g for 30 min. The resulting pellet formed contains a dark inner part with the exterior, slightly pink. The pink outer part is suspended in a small amount of 50.0 mMTris.HCl buffer, pH 7.4. The protein content is determined by the Lowry's method (Lowry et al, J. Biol. Chem., 1953). The membrane suspension is stored at -70° C., in 50.0 mMTris.HCl, containing 0.2% inactivated BSA and 0.1 mM PMSF in aliquots of 1.0 ml containing 10.0 mg protein per ml of suspension until use in subsequent binding experiments.
For binding experiments, the following is added in μl volume to wells of a 96 well format of a microtiter plate: 100.0 μl of 100.0 mM Tris.HCl buffer containing 0.2% heat inactivated BSA, 10.0 mM MgCl2 and a mixture of protease inhibitors: leupeptin, 1.0 mg %; aprotinin, 1.0 mg %; 1,10-phenanthroline, 2.0 mg %; trypsin inhibitor, 10.0 mg % and 0.1 mM PMSF, 20.0 μl of [^3 H]Arginine^8, vasopressin (S.A. 75.0 Ci/mmole) at 0.8 nM and the reaction initiated by the addition of 80.0 μl of tissue membranes (200.0 μg tissue protein). The plates are left undisturbed on the bench top for 120 min. to reach equilibrium. Non-specific binding is assessed in the presence of 1.0 μM of unlabeled ligand, added in 20 μl volume. For test compounds, these are solubilized in 50% dimethylsulfoxide (DMSO) and added in 20.0 μl volume to a final incubation volume of 200 μl. Upon completion of binding, the content of each well is filtered off, using a Brandel® cell Harvester (Gaithersburg, Md.). The radioactivity trapped on the filter disk by the ligand-receptor complex is assessed by liquid scintillation counting in a Packard LS Counter, with an efficiency of 65% for tritium. The data are analyzed for IC50 values by the LUNDON-2 program for competition (LUNDON SOFTWARE, OH).

Vasopressin V2 = Vasopressin V2 Antagonist Activity in Conscious Hydrated Rats; format: in vivo, rat; settings: AVP 0.4 μg/kg i.p.
Experimental: Vasopressin V2 Antagonist Activity in conscious Hydrated Rats Conscious hydrated rats are treated with compounds under study from 0.1 to 100 mg/kg orally or vehicle. Two to four rats are used for each compound. One hour later, arginine vasopressin (AVP, antidiuretic hormone, ADH) dissolved in peanut oil is administered at 0.4 μg/kg intraperitoneally. Two rats in each test would not receive arginine vasopressin but only the vehicle (peanut oil) to serve as water-loading control. Twenty minutes later each rat is given 30 mL/kg of deionized water orally by gavage and is placed individually in a metabolic cage equipped with a funnel and a graduated glass cylinder to collect urine for four hours. Urine volume is measured and osmolality analyzed by use of a Fiske One-Ten osmometer (Fiske Assoc., Norwood, Mass. USA). Urinary sodium, potassium, and chloride are analyzed by use of ion-specific electrodes in a Beckman E3 (Electrolyte 3) Analyzer. In the following results, […] and […] osmolality relative to AVP-control indicates activity.

Vasopressin V1 = Vasopressin V1 Antagonist Activity in Conscious Rats (vasopressin vasopressor response); format: in vivo, rat
Experimental: Vasopressin V1 Antagonist Activity in Conscious Rats Conscious rats are restrained in a supine position with elastic tape. The area at the base of the tail is locally anesthetization by subcutaneous infiltration with 2% procaine (0.2 ml). Using aseptic technique the ventral caudal tail artery is isolated and a cannula made of PE 10 and 20 (heat-fused) tubing is passed into the lower abdominal aorta. The cannula is secured, heparinized (1000 i.u./cc), sealed and the would closed with one or two stitches of Dexon 4-0. The caudal vein is also cannulated in the same manner for intravenous drug administration. The duration of the surgery is approximately 5 minutes. Additional local anesthesia (2% procaine or lidocaine) is provided as needed. The animals are placed in plastic restraining cages in an upright position. The cannula is attached to a […] pressure transducer and pulsatile blood pressure is recorded. […] Percentage of antagonism by the compound is calculated using the pre-drug vasopressin vasopressor response as 100%.

oxytocin receptors = biological target: T3, oxytocin receptors (Rattus norvegicus, UniProt P70536); test: Oxytocin Receptor Binding; design: species or system Sprague-Dawley rats; settings: for IC50: 1.0 nM [3H]oxytocin
T3 construct: The uteri are dissected out, cleaned of fat and connective tissues; from tissue; host or cells: uterus membranes of DES-treated female Sprague-Dawley rats
T3 sequence (P70536 1-388): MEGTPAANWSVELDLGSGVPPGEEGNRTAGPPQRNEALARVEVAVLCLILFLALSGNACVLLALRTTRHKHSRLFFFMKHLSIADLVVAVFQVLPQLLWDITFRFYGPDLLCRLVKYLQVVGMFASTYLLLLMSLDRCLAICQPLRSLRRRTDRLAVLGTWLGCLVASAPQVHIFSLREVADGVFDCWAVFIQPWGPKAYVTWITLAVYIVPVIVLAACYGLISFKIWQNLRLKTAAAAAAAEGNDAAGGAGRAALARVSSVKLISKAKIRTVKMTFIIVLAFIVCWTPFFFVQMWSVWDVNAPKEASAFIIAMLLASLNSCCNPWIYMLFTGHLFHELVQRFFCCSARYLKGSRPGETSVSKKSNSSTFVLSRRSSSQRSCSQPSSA
Experimental: Oxytocin Receptor Binding
Female Sprague-Dawley rats weighing approximately 200-250 g are injected intramuscularly (i.m.) with 0.3 mg/kg of body weight of diethylstilbestrol (DES). The rats are sacrificed 18 hours later under pentobarbital anesthesia. The uteri are dissected out, cleaned of fat and connective tissues and rinsed in 50 ml of normal saline. The tissue pooled from six rats is homogenized in 50 ml of 0.01 mMTris.HCl, containing 0.5 mM dithiothreitol and 1.0 mM EDTA, adjusted to pH 7.4, using a polytron at setting 6 with three passes of 10 sec each. The homogenate is passed through two (2) layers of cheesecloth and the filtrate centrifuged at 1000×g for 10 min. The clear supernatant is removed and recentrifuged at 165,000×g for 30 min. The resulting pellet containing the oxytocin receptors is resuspended in 50.0 mM Tris.HCl containing 5.0 mM MgCl2 at pH 7.4, to give a protein concentration of 2.5 mg/ml of tissue suspension. This preparation is used in subsequent binding assays with [^3 H]Oxytocin.
Binding of 3,5-[^3 H]Oxytocin ([^3 H]OT) to its receptors is done in microtiter plates using [^3 H]OT, at various concentrations, in an assay buffer of 50.0 mM Tris.HCl, pH 7.4 and containing 5.0 mM MgCl2, and a mixture of protease inhibitors: BSA, 0.1 mg; aprotinin, 1.0 mg; 1,10-phenanthroline, 2.0 mg; […], 10.0 mg; and PMSF, 0.3 mg per 100 ml of buffer solution. Nonspecific binding is determined in the presence of 1.0 uM unlabeled OT. The binding reaction is terminated after 60 min., at 22° C., by rapid filtration through glass fiber filters using a Brandel® cell harvester (Biomedical Research and Development Laboratories, Inc., Gaithersburg, Md.). Competition experiments are conducted at equilibrium using 1.0 nM [^3 H]OT and varying the concentration of the displacing agents. The concentrations of agent displacing 50% of [^3 H]OT at its sites (IC50) are calculated by a computer assisted LUNDON-2 program (LUNDON SOFTWARE INC., Ohio, USA).

[3] = Rattus norvegicus, 10 mg/kg iv, read-out: Vasopressin vasopressor response, Max. % Inhibition

T1 sequence (P30560 whole entry): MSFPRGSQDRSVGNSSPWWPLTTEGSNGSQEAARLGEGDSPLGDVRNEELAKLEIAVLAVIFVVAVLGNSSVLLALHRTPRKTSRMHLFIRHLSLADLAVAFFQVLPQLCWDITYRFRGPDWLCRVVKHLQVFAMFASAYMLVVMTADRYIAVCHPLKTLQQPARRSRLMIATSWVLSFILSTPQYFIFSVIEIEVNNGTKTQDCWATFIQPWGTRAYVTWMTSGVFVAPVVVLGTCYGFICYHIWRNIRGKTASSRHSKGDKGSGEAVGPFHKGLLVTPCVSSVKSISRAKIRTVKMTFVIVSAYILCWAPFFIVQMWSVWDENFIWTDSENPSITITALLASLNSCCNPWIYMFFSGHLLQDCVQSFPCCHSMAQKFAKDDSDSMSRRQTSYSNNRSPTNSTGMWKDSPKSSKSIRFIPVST

| IC50 [1] [µM] | IC50 [2] [µM] | IC50 (oxytocin receptors) [µM] | inhibition at 10 µM (oxytocin receptors; 10 μM) [%] | inhibition at 2.5 µM (oxytocin receptors; 2.5 μM) [%] | SMILES | Osmolality (Vasopressin V2; 30 mg/kg P.O.) [mOsm/kg] | Urine Volume (Vasopressin V2; 30 mg/kg P.O.) [ml/4 hours] | Time (Min) of Max. % Inhibition (Vasopressin V1; 10 mg/kg iv) [min] | inhibition in vivo at 10 mg/kg (Vasopressin V1; [3]) [%] | Urine Volume (Vasopressin V2; 10 mg/kg P.O.) [ml/4 hours] | Time (Min) of Max. % Inhibition (Vasopressin V1; 20 mg/kg iv) [min] | inhibition in vivo at 20 mg/kg (Vasopressin V1; Rattus norvegicus, 20 mg/kg iv, read-out: Vasopressin vasopressor response, Max. % Inhibition) [%] |
| --- | --- | --- | --- | --- | --- | --- | --- | --- | --- | --- | --- | --- |
| 0.065 | 0.055 | – | – | – | O=C(Nc1ccc(C(=O)N2CCCCc3sccc32)cc1)C1CC=CCC1 (stereo not shown) [Example 15, N-[4-[(5,6,7,8-Tetrahydro-4H-thieno[3,2-b]azepin-4-yl)carbonyl]phenyl]3-cyclohexenecarboxamide] | 1397 | 4.6 | 30 | 69 | – | – | – |
| 0.0037 | 0.0026 | – | – | – | O=C(Cc1ccccc1Cl)Nc1ccc(C(=O)N2CCCCc3sccc32)cc1 [Example 2, N-[4-[(5,6,7,8-Tetrahydro-4H-thieno[3,2-b]azepin-4-yl)carbonyl]phenyl]-2-chlorobenzeneacetamide] | – | – | 60 | 7.6 | 2.8 | – | – |
| 0.068 | 0.0061 | 0.34 | 96 | – | Cc1ccc(F)cc1C(=O)Nc1ccc(C(=O)N2CCCCc3sccc32)cn1 [Example 243, N-[5-[(5,6,7,8-tetrahydro-4H-thieno[3,2-b]azepin-4-yl)carbonyl]-2-pyridinyl]-5-fluoro-2-methylbenzamide] | – | – | – | – | – | – | – |
| 0.068 | 0.0061 | 0.17 | – | 93 | O=C(Nc1ccc(C(=O)N2CCCCc3sccc32)cn1)c1ccccc1-c1ccccc1 [Example 252] | – | – | – | – | – | – | – |
| 0.02 | 0.0033 | – | – | – | O=C(Cc1ccccc1Cl)Nc1ccc(C(=O)N2CCCCc3sc(Cl)cc32)cc1 [Example 99, N-[4-[(2-Chloro-5,6,7,8-tetrahydro-4H-thieno[3,2-b]azepin-4-yl)carbonyl]phenyl]-2-chlorobenzeneacetamide] | 1135 | 10 | 90 | 58 | – | – | – |
| 0.12 | 0.03 | – | – | – | O=C(Nc1ccc(C(=O)N2CCCCc3sccc32)cc1)c1ccc(Cl)cc1Cl [Example 14, N-[4-[(5,6,7,8-Tetrahydro-4H-thieno[3,2-b]azepin-4-yl)carbonyl]phenyl]2,4-dichlorobenzamide] | 1432 | 3.5 | – | – | – | 120 | 61 |
